Results as given in publication PMC6628362, “A New Strategy for Glioblastoma Treatment: In Vitro and In Vivo Preclinical Characterization of Si306, a Pyrazolo[3,4-d]Pyrimidine Dual Src/P-Glycoprotein Inhibitor” (Cancers, 2019).
Like-named read-outs stand apart in the source and are kept apart here.

Key:
[1] = system: U87; assay: MTT cell growth inhibition, U87; type: cell-based, Human; settings: 72 h, n = 3
Method: Human GBM cell lines U87 and LN-229 were purchased from the American Type Culture Collection, Rockville, MD, USA. U87-TxR cells were selected from U87 cells by continuous exposure to increasing concentrations of PTX [76]. LN-299, U87 and U87-TxR cells were grown in Minimum Essential Medium with 10% fetal bovine serum, 2 mM L-glutamine and 5000 U/mL penicillin, 5 mg/mL streptomycin solution. Cell lines were maintained at 37 °C in a humidified 5% CO2 atmosphere. They were sub-cultured at 72 h intervals using 0.25% trypsin/EDTA and 16,000 cells/cm^2 were seeded into a fresh medium.
MTT assay was used to assess the viability of U87 and U87-TxR cells (AppliChem GmbH, Taufkirchen, Germany). After reaching the confluence in 25 cm^2 tissue flasks, U87 and U87-TxR cells were trypsinized. Cells were seeded at the optimal density determined in initial experiments: 4000 cell/well into flat-bottomed 96-well tissue culture plates. Following the overnight incubation, cells were treated with Si306, pro-Si306 and dasatinib (1–25 µM) for 72 h. In addition, the combined effects of Si306 and pro-Si306 with PTX were evaluated in MDR GBM cells. To that end, two concentrations of Si306 and pro-Si306 (0.2 μM and 0.5 μM) were combined with increasing concentrations of PTX (0.1–2 μM) in simultaneous treatment. The sensitization of U87-TxR cells to PTX was studied after 72 h. Briefly, MTT was added to each well in a final concentration of 0.2 mg/mL for 4 h to induce the formation of the formazan in cells with intact/viable mitochondria. Then, produced formazan was dissolved in DMSO, and the absorbance was measured at 540 nm on a microplate reader (LKB 5060-006 Micro Plate Reader, Vienna, Austria). IC50 values were calculated by nonlinear regression analysis using GraphPad Prism 6.0 for Windows (GraphPad Software, La Jolla, CA, USA).

[2] = system: BT-138; assay: Cell viability, BT-138 (Table S1); type: cell-based; settings: BT-138, 24 h
Method: (§1) 1. Cell Growth Inhibition by Dasatinib, Si306 and Pro-Si306
(§2) GB cell lines BT138, T98G and A172 were treated with Si306 and pro-Si306 at concentrations ranging from 1 to 100 µM, or with DMSO as a control. Cell viability was evaluated 72 h after treatment for T98G and A172 cell lines and after 24 h for BT-138. In table S1 the IC50 values are reported.
(§3) Table S1. Sensitivity of glioblastoma multiforme (GBM) cells to Si306 and pro-Si306 expressed as IC50 […]
(§4) Figure S1. Rho 123 accumulation in U87-TxR cells treated with increasing concentrations of TQ (A), Dex-VER (B), Si306 (C) and pro-Si306 (D).
(§5) (1 picture or pasted object on this page, not shown here)

[3] = system: T98G; assay: Cell viability, T98G (Table S1); type: cell-based; settings: Homo sapiens, 72 h
Method: as §1, §2, §3, §4, §5

[4] = Plasma pharmacokinetics of Si306 in mice; type: in vivo, BALB/C mice; settings: for AUC(0-t): read-out: AUC 0→24 h; for MRT inf: read-out: MRT 0→∞
Text: Naive male BALB/C mice (weight 20 ± 2 g) were ordered from Charles River (Milan, Italy). All animals were pathogen free and approximately 4–6 weeks old when they arrived. The adaption period to the environment was not less than seven days. All the procedures used on animals in this study were approved by Institutional Animal Use and Care Committee at Università Cattolica del S. Cuore, Rome and Università degli Studi di Siena and authorized by the Italian Ministry of Health, according to Legislative Decree 116/92, which implemented the European Directive 86/609/EEC on laboratory animal protection in Italy. Methods for all the conducted experiments were performed in accordance with regulations, standards and guidelines of the Animal Use and Care Committee of Università Cattolica del S. Cuore, Rome and Università degli Studi di Siena.
Si306 was dissolved in a mixture of Tween80 (10% v/v), benzyl alcohol (1% v/v) and a 10 mM solution of citric acid. The compound was administered intravenously as a single dose of 25 mg/kg in 200 μL of volume. At several time points (0.08, 0.25, 0.5, 1, 2, 4, 8, 24 h), after drug administration, mice were treated i.p. with heparin (5000 U/kg) and sacrificed under CO2. Five animals were used for each time point. Blood, brain, liver and kidneys were collected for the following quantitative analysis. Approximately 500–600 μL of blood was collected from each animal and transferred to a tube containing 10 μL of heparin and mixed briefly.
For the oral PK studies, mice received a single dose of 50 mg/kg of Si306 (dissolved in the same vehicle used for i.v. studies) in 400 μL of final volume by gavage. At nine time-points (0.25, 0.5, 1, 1.5, 2, 3, 4, 8, 24 h) after administration, mice were sacrificed under CO2. Blood and organs were collected and analyzed by LC-MS. The pharmacokinetic parameters, including area under concentration-time curve (AUC), maximum plasma concentration (Cmax), half-time (t1/2), apparent volume of distribution (V), plasma clearance (CL) and mean residence time (MRT), were calculated by non-compartmental analysis using PKSolver software (ver. 1.0, Nanjing, China).
Blood samples were centrifuged at 5000 rpm for 20 min to separate the plasma fraction, which was subsequently collected in a test tube. Acetonitrile (1 mL, with Si34 as internal standard at the concentration of 5 μg/mL) was added to each sample to denature proteins. Samples were centrifuged at 5000 rpm for 20 min, and the supernatant was recovered, dried under vacuum, solubilized again in methanol (100 μL), and analyzed. Brain and the other organs were homogenized using a T10 basic ULTRA-TURRAX® homogenizer (Bioclass, Pistoia, Italy); in order to extract the compound from the tissue, acetonitrile internal standard solution was added, and the homogenate was centrifuged at 5000 rpm for 20 min. The supernatant was recovered, filtered and analyzed by LC-MS. The quantification of each compound was performed by reference to the appropriate calibration curve. Representative LC-MS chromatograms for Si306 and for Si34 are reported in Figure S2 and Figure S3 respectively.

[5] = male, BALB/C, mouse, iv, 25 mg/kg, mice
[6] = male, BALB/C, mouse, po, 50 mg/kg, mice

ClC(Cn1ncc2c(Nc3cccc(Br)c3)nc(SCCN3CCOCC3)nc21)c1ccccc1 (centres unmarked) [Si306]
IC50 [1]: 3.08 ± 0.26 µM
IC50 ([1]; Homo sapiens, U-87 MG): ~3 µM
IC50 [2]: 72.6 ± 6.21 µM
IC50 [3]: 0.46 ± 0.02 µM
Cmax for i.v. treatment, times higher than p.o. ([4]; i.v. 25 mg/kg vs p.o. 50 mg/kg): 8.5 times
CL z/F ([4]; i.v., 25 mg/kg, mice): 18.3 mL/min/kg
V z/F ([4]; i.v., 25 mg/kg, mice): 8.17 L/kg
Tmax ([4]; male, BALB/C, mouse, iv, 25 mg/kg, i.v., 25 mg/kg, mice, read-out: Tmax): 0.08 h
Tmax ([4]; male, BALB/C, mouse, iv, 25 mg/kg, i.v., 25 mg/kg, mice, read-out: time of peak plasma concentration (converted)): 0.0833 h
AUC(0-inf) [4, 5]: 22800 ng·h/mL
Cmax [4, 5]: 25400 ng/mL
half-life [4, 5]: 5.15 h
AUC(0-t) [4, 5]: 22300 ng·h/mL
MRT inf [4, 5]: 3.78 h
bioavailability ([4]; male, BALB/C, mouse, oral, 50 mg/kg, mice, p.o. 50 mg/kg vs i.v. 25 mg/kg, equation (1)): 33.3%
AUC(0-inf) [4, 6]: 15200 ng·h/mL
Cmax [4, 6]: 2970 ng/mL
half-life [4, 6]: 5.96 h
AUC(0-t) [4, 6]: 14500 ng·h/mL
CL/F ([4]; male, BALB/C, mouse, po, 50 mg/kg, mice, read-out: CL z/F (converted)): 54.8 mL/min/kg
MRT inf [4, 6]: 5.7 h
Vd/F ([4]; male, BALB/C, mouse, po, 50 mg/kg, mice, read-out: V z/F): 28.3 L/kg
Tmax ([4]; male, BALB/C, mouse, po, 50 mg/kg, p.o., 50 mg/kg, mice, read-out: Tmax): 1.5 h
